The target of the test is T1, recombinant GST-p110γ (human PI3Kγ, residues 38-1102) (Homo sapiens, UniProt P48736).
T1 construct: Residues 38-1102 of human PI3Kγ are subcloned into the BamH1 and EcoR1 sites; made in house; host or cells: Sf9 (Spodoptera frugiperda) insect cells, baculovirus
T1 sequence (P48736 38-1102): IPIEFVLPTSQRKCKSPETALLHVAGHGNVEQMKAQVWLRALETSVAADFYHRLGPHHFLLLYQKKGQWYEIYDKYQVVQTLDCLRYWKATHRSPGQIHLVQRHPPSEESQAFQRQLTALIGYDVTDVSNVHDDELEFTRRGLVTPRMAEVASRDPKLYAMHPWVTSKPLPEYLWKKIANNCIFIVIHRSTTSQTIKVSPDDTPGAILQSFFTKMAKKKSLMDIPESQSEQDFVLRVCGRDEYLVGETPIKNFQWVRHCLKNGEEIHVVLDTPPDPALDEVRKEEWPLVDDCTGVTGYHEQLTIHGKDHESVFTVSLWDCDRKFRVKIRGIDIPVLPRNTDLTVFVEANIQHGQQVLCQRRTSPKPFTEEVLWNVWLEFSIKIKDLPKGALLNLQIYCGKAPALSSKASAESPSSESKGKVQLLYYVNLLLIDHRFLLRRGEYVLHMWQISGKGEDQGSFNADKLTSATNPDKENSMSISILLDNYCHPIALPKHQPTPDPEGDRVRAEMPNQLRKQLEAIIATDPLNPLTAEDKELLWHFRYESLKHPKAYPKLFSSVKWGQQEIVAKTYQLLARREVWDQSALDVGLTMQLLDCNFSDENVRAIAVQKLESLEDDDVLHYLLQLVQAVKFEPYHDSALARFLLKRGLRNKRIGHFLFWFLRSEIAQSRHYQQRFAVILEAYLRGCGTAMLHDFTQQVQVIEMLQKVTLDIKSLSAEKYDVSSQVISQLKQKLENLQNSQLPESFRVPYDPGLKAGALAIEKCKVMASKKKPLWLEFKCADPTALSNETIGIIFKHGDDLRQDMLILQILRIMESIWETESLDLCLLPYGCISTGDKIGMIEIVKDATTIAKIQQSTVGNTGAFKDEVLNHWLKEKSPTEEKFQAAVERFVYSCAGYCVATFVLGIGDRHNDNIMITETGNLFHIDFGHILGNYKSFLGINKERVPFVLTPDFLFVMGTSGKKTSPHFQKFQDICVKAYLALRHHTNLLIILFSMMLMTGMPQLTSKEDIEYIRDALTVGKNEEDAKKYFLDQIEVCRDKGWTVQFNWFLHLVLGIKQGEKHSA
Nature of the test: PI3Kγ in vitro kinase assay (Scintillation Proximity Assay), transfer of terminal phosphate of ATP to phosphatidylinositol. Format: biochemical. The conditions noted are these: 12.5 μM ATP, 15 μg/ml phosphatidylinositol, 60 minutes at room temperature. An excerpt: Baculovirus expressing different fragments of PI3Kγ fused to GST have been previously described by Stoyanova, S., Bulgarelli-Leva, G., Kirsch, C., Hanck, T., Klinger, R., Wetzker, R., Wymann, M. P. (1997) Lipid- and protein kinase activities of G protein-coupled PI 3-kinase g: structure-activity analysis and interactions with wortmannin. Biochem. J., 324:489. Residues 38-1102 of human PI3Kγ are subcloned into the BamH1 and EcoR1 sites of the transfer vector pAcG2T (Pharmingen) to create a GST-PI3Kγ lacking the first 37 residues of PI3Kγ. To express the recombinant protein, Sf9 (Spodoptera frugiperda 9) insect cells are routinely maintained at densities between 3×10^5 and 3×10^6 cells/ml in serum containing TNMFH medium (Sigma). Sf9 cells, at a density of 2×10^6 are infected with human GST-PI3KγΔ34 baculovirus at a multiplicity of infection (m.o.i.) of 1 for 72 hours. The infected cells are harvested by centrifugation at 1400 g for 4 minutes at 4° C. and the cell pellets are frozen at −80° C. Both Sf9 and Sf21 cells work equally well. Sf9 cells (1×10^9) are resuspended in 100 ml cold (4° C.) lysis buffer (50 mM Tris-HCl pH 7.5, 1% Triton X-100, 150 mM NaCl, 1 mM NaF, 2 mM DTT and protease inhibitors. Cells are incubated on ice for 30 minutes then centrifuged at 15000 g for 20 minutes at 4° C. Purification of the supernatant sample is carried out at 4° C. by affinity chromatography using SEPHAROSE™ agarose gel beads coupled to glutathione (from Amersham Pharmacia Biotech). A cell lysate/GST resin ratio of 50:1 is used. The GST resin is firstly pre-rinsed to remove ethanol preservative and then equilibrated with lysis buffer. Cell lysate (supernatant) is added (usually as 50 ml lysate to 1 ml GST resin in 50 ml tubes) and gently rotated on a mixer at 4° C. for 2-3 hours. The unbound flow through sample is collected by centrifugation at 1000 g for 5 minutes at 4° C. using a DENLEY™ centrifuge. The 1 ml GST resin containing bound material is transferred to a 15 ml FALCON™ centrifuge tube for subsequent washing and elution steps. Firstly a series of 3 cycles of washings (mixing by gentle inversion) is performed with 15 ml ice cold wash Buffer A (50 mM Tris-HCl pH 7.5, 1% Triton X-100, 2 mM DTT) interspersed with centrifugation at 1000 g for 5 minutes at 4° C. A final single wash step is performed with 15 ml ice cold wash Buffer B (50 mM Tris-HCl pH 7.5, 2 mM DTT) and then centrifuged at 1000 g for 5 minutes at 4° C. The washed GST resin is finally eluted with 4 cycles of 1 ml ice cold elution buffer (50 mM Tris-HCl pH 7.5, 10 mM reduced glutathione, 2 mM DTT, 150 mM NaCl, 1 mM NaF, 50% ethylene glycol and protease inhibitors) interspersed with centrifugation at 1000 g for 5 minutes at 4° C. Samples are aliquoted and stored at −20° C.
An in vitro kinase assay is established that measures the transfer of the terminal phosphate of adenosine triphosphate to phosphatidylinositol. The kinase reaction is performed in a white 96 well microtitre plate as a Scintillation Proximity Assay. Each well contains 10 μl test compound in 5% dimethylsulphoxide and 20 μl assay mix (40 mM Tris, 200 mM NaCl, 2 mM ethyleneglycol-aminoethyl-tetraacetic acid (EGTA), 15 μg/ml phosphatidylinositol, 12.5 μM adenosine triphosphate (ATP), 25 mM MgCl2, 0.1 μCi [^33P]ATP). The reaction is started by the addition of 20 μl of enzyme mix (40 mM Tris, 200 mM NaCl, 2 mM EGTA containing recombinant GST-p110γ). […]
For “2-{3-[5-(2-methanesulfinyl-6-methyl-pyrimidin-4-yl)-4-methyl-thiazol-2-yl]-ureido}-N,N-dimethyl-acetamide [Example 67]”, the half-inhibitory concentration (IC50) (usually the concentration needed to halve the response being measured) turned out to be 16 nM.

Turning to `Cc1nc(Nc2cnccn2)sc1-c1ccncc1` [Example 1, (4-Methyl-5-pyridin-4-yl-thiazol-2-yl)-pyrazin-2-yl-amine], the IC50 was determined as 75 nM.

Consider `Cc1nc(Nc2cnccn2)sc1-c1ccnc(-n2ccnc2)c1` [Example 6, [5-(2-Imidazol-1-yl-pyridin-4-yl)-4-methyl-thiazol-2-yl]-pyrazin-2-yl-amine], for which the IC50 amounted to 165 nM.

On to `Cc1nc(Nc2cc[nH]n2)sc1-c1ccnc(N2CCOCC2)c1` [Example 11, [4-Methyl-5-(2-morpholin-4-yl-pyridin-4-yl)-thiazol-2-yl]-(1H-pyrazol-3-yl)-amine], for which the half-inhibitory concentration (IC50) is 93 nM.

With `CCOC(=O)CCNC(=O)Nc1nc(C)c(-c2ccncc2)s1` [Example 17, 3-[3-(4-Methyl-5-pyridin-4-yl-thiazol-2-yl)-ureido]-propionic acid ethyl ester], the IC50 was determined as 106 nM.

As for `Cc1nc(NC(=O)NCc2cccn2C)sc1-c1ccncc1` [Example 22, 1-(4-methyl-5-pyridin-4-yl-thiazol-2-yl)-3-(1-methyl-1H-pyrrol-2-ylmethyl)-urea], the IC50 amounted to 50 nM.

Consider `CC(=O)Nc1nc(C)c(-c2ccnc(C3CC3)n2)s1` [Example 27, N-[5-(2-Cyclopropyl-pyrimidin-4-yl)-4-methyl-thiazol-2-yl]-acetamide], for which the half-inhibitory concentration (IC50) turned out to be 17 nM.

With `CCc1cnc(CCNC(=O)Nc2nc(C)c(-c3ccnc(Cl)c3)s2)o1` [Example 33, 1-[5-(2-chloro-pyridin-4-yl)-4-methyl-thiazol-2-yl]-3-[2-(5-ethyl-oxazol-2-yl)-ethyl]-urea], the IC50 is 73 nM.

As to `CCc1cnc(CCNC(=O)Nc2nc(C)c(-c3cc(C)nc(OC)n3)s2)o1` [Example 56, 1-[2-(5-Ethyl-oxazol-2-yl)-ethyl]-3-[5-(2-methoxy-6-methyl-pyrimidin-4-yl)-4-methyl-thiazol-2-yl]-urea], the concentration for half-maximal inhibition (IC50) was found to be 127 nM.

As for `Cc1nc(NC(=O)NCCC(=O)OC(C)(C)C)sc1-c1ccnc(C2CC2)n1` [Example 82, 3-{3-[5-(2-cyclopropyl-pyrimidin-4-yl)-4-methyl-thiazol-2-yl]-ureido}-propionic acid tert-butyl ester], the IC50 is 164 nM.

Regarding `Cc1nc(N)sc1-c1ccnc(C(C)(C)C)n1` [Example 91, 5-(2-tert-Butyl-pyrimidin-4-yl)-4-methyl-thiazol-2-ylamine], the IC50 was found to be 25 nM.

`COCCNC(=O)Nc1nc(C)c(-c2ccnc(C(C)(C)C)n2)s1` [Example 108, 1-[5-(2-tert-butyl-pyrimidin-4-yl)-4-methyl-thiazol-2-yl]-3-(2-methoxy-ethyl)-urea]: the IC50 turned out to be 5 nM.

As to `CCOCCNC(=O)Nc1nc(C)c(-c2ccnc(C(C)(C)C)n2)s1` [Example 120, 1-[5-(2-tert-butyl-pyrimidin-4-yl)-4-methyl-thiazol-2-yl]-3-(2-ethoxy-ethyl)-urea], the IC50 is 8 nM.

The values above are taken from patent US8404684B2, “Inhibitors of phosphatidylinositol 3-kinase” (Novartis AG, priority 2003, dated 2013).
